Assays:
[1] = prior human studies; cited from earlier work
[2] = test system: ADHD subjects with CNV in an mGluR network gene; test: Open-label Phase Ib clinical trial of NFC-1 in adolescent ADHD subjects with a genetic alteration in an mGluR network gene; type: in vivo, human
Protocol: An open-label Phase Ib clinical trial was conducted to investigate the safety, pharmacokinetics and efficacy of NFC-1 (fasoracetam monohydrate) in adolescent subjects between the ages of 12 and 17 previously diagnosed with ADHD who also had at least one genetic alteration in an mGluR network gene.
The study included 30 ADHD subjects who were between ages 12 and 17, of any ancestry or race, of weight within the 5th to 95th percentile for their age, and otherwise judged to be in good medical health. […] Seventeen of the 30 subjects have a CNV in a tier 1 mGluR network gene, while 7 subjects have a CNV in a tier 2 gene and 6 in a tier 3 gene.
Exclusion criteria comprised subjects suffering from a clinically significant illness, either mental or physical, that, in the investigator's opinion, might confound the results of the study or that might prevent them from completing the study, subjects that are pregnant or nursing, subjects that test positive for illicit drugs of that have a history of drug abuse, subjects that consume alcoholic beverages, or subjects for which the investigator is otherwise concerned regarding their compliance or suitability.
NFC-1 capsules of either 50 mg or 200 mg comprising fasoracetam monohydrate as active ingredient and placebo capsules comprising microcellulose were used for the study. The design of the trial was a phone screening (1 day), enrollment phase (1 to 2 days), a wash-out phase for subjects currently on ADHD medications (1-14 days), pharmacokinetic (PK) assessment (2 days), followed by a dose-escalation phase (35 days) and a follow-up phone visit approximately four weeks after the last dose, for a maximum of 127 days. All ADHD medications were discontinued during the wash-out phase prior to the study. The wash-out period for stimulants was 2-3 days and that for atomoxetine or noradrenergic agonists was 10-12 days. No new ADHD medications were started during the study.
A dose-escalation phase of the trial ran over a 5-week period, after the initial wash-out period and the PK and initial safety assessments. […]

[3] = test system: dementia-related cognitive impairment; details: cited from earlier work

| Compound | bioavailability [1] | OCD symptoms ([2]; all eight subjects with OCD symptoms, during therapy) | dermatillomania symptoms (ear scratching, bleeding ulcer) ([2]; one subject with OCD and a history of ear scratching, during therapy) | conduct disorder symptoms, Vanderbilt items 27-40 score ([2]; week 5, one subject meeting conduct disorder criteria, decreased from 16 at week 1 (placebo week), 50-400 mg bid dose escalation) | safety and tolerability ([3]; Phase I-III trials, dementia-related cognitive impairment) | effects on psychiatric symptoms ([3]; Phase III data, cerebral infarct patients and adult dementia patients with cerebrovascular diseases) | efficacy in dementia ([3]; Phase III trials) |
| --- | --- | --- | --- | --- | --- | --- | --- |
| O=C1CC[C@H](C(=O)N2CCCCC2)N1 [Fasoracetam, fasoracetam] | 79%-97% |  |  |  |  |  |  |
| O=C1CC[C@H](C(=O)N2CCCCC2)N1 [NFC-1, fasoracetam monohydrate] |  | improved | reduced | 12 | generally safe and well tolerated | beneficial effects | did not show sufficient efficacy |
